{"source": "paper PMC7763472", "about": "“High Capability of Pentagalloylglucose (PGG) in Inhibiting Multiple Types of Membrane Ionic Currents” (International Journal of Molecular Sciences, 2020)", "molecular_target": "T1, proton-activated Cl− channel (PAC) (Rattus norvegicus, UniProt Q66H28)", "T1 construct": "gene Pacc1", "T1 sequence (Q66H28 whole entry)": "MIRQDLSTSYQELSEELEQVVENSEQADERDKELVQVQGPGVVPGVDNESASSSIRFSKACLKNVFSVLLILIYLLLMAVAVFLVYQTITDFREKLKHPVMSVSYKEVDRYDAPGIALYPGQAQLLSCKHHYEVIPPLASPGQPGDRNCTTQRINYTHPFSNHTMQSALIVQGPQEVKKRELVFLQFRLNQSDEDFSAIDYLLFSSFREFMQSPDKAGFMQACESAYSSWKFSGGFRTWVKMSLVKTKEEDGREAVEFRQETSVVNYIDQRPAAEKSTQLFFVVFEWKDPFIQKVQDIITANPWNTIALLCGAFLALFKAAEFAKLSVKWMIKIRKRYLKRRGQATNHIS", "experiment": "whole-cell patch clamp of native IPAC in GH3 cells, pH […], single concentration […]", "format": "cell-based", "data": [{"smiles": "CCCCC1(C2CCCC2)Cc2cc(OCCCC(=O)O)c(Cl)c(Cl)c2C1=O", "note": "(stereo not shown) [DCPIB, 4-[(2-Butyl-6,7-dichloro-2-cyclopentyl-2,3-dihydro-1-oxo-1H-inden-5yl)oxy] butanoic acid]", "values": [{"measurement": "inhibition at 10 µM", "result": 51, "unit": "%"}]}]}
